The values that follow come from ChEMBL document CHEMBL1201862, “PubChem BioAssay data set” (2004).

The target of experiment [1] is T1, Cytochrome P450 1A2 (Homo sapiens, UniProt P05177).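 Further: PubChem cytochrome P450 panel assay, CYP1A2 panel member.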
T1 sequence (P05177 whole entry): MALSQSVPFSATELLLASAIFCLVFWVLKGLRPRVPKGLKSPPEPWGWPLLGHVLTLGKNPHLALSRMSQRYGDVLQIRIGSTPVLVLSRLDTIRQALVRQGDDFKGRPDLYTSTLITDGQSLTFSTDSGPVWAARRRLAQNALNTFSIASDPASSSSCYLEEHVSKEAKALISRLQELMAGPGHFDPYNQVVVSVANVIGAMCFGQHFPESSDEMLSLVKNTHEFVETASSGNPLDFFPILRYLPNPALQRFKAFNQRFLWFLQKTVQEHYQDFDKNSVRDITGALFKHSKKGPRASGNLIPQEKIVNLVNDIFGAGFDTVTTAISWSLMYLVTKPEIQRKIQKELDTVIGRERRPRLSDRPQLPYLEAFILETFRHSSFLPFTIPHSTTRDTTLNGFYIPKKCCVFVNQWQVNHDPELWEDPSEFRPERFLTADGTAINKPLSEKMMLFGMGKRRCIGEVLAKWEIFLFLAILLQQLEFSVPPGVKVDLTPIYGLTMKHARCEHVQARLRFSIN

Experiment [2] addresses T2, Heat shock factor protein 1 (Mus musculus, UniProt P38532).
T2 sequence (P38532 whole entry): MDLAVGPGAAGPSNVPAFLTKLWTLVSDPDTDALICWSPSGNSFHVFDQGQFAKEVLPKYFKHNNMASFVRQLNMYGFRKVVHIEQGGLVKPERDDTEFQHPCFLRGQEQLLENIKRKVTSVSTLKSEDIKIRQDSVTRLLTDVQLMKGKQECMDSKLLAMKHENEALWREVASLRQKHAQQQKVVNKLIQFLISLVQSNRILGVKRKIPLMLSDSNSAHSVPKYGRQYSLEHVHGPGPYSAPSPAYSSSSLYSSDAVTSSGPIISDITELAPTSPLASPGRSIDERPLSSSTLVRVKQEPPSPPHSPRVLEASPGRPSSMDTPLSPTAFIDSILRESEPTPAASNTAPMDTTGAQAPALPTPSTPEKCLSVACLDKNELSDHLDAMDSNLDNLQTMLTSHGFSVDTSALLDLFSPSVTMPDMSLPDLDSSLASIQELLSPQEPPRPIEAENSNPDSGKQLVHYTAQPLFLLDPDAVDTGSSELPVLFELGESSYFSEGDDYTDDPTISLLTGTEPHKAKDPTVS
In words: enhancement of HSF1-driven luciferase signal – cell-based, NIH3T3, luminescence, dose retest, confirmation (AID 435004).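 Further: stress induced by proteasome inhibitor MG132 added 30 min after compound; luciferase reporter driven by HSF1 response element in NIH3T3 cells; actives raise luminescence as potentiators of the MG132 stress response.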 The experiment is classed as functional.

Experiment [3] can be described thus: NIH3T3 cell viability loss – ATP luminescence, mouse fibroblasts, counter-screen, dose response (AID 2010).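 Further: cells exposed to compound for about 90 hours before reading.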 In kind it is functional, cell-based. A general note: The purpose of a counterscreen is to sort out artefacts and off-target activity.
Experiment [4] is described as follows: Trypanosoma cruzi growth suppression in host cells – NIH3T3 host cells, beta-gal luminescence, confirmation (AID 2044).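 Further: intracellular parasites grown in NIH/3T3 mouse fibroblasts as host cells; luminescent beta-galactosidase reporter signal from transgenic T. cruzi replicating inside host cells; inhibitors lower the luminescence signal.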 In kind it is functional, cell-based.
Experiment [5] addresses T3, Rac GTPase-activating protein 1 (Homo sapiens, UniProt Q9H0H5).
T3 sequence (Q9H0H5 whole entry): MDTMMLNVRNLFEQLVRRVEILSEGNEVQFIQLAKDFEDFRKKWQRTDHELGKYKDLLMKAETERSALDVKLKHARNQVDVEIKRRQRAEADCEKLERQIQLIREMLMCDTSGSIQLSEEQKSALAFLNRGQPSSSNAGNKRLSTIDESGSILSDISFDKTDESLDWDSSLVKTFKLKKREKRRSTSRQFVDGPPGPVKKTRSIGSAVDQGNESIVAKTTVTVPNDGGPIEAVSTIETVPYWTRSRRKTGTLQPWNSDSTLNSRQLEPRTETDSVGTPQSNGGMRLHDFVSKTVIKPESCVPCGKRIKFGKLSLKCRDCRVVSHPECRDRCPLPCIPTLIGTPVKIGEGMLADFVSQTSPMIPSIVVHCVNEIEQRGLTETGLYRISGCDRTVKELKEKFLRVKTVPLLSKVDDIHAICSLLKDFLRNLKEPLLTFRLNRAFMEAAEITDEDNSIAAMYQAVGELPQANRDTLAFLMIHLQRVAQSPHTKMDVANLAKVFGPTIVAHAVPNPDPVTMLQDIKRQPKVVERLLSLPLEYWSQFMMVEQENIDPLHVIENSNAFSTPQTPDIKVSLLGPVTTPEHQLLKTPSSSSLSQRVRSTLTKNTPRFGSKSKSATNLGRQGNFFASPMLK
In words: blockers of MgcRacGAP-driven Rac1 GTP hydrolysis – biochemical, ADP Hunter fluorescence, primary and confirmatory, confirmation (AID 624330). The experiment is classed as functional.

The test system of experiment [6] is INS1. Description: INS-1E survival protection against cytokine death – cell-based, luminescence, retest, dose response (AID 449756).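 Further: cell death triggered by IL-1 beta plus TNF-alpha plus IFN-gamma mixture; protective hits raise ATP signal compared with cytokine alone wells.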 In kind it is functional. The conditions noted are these: Rattus norvegicus.
For experiment [7], the target named is Cytochrome P450 2D6 (Homo sapiens, UniProt P10635).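 Further: CYP2D6 member of a cytochrome P450 panel assay.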
Chain of Cytochrome P450 2D6 (P10635 whole entry): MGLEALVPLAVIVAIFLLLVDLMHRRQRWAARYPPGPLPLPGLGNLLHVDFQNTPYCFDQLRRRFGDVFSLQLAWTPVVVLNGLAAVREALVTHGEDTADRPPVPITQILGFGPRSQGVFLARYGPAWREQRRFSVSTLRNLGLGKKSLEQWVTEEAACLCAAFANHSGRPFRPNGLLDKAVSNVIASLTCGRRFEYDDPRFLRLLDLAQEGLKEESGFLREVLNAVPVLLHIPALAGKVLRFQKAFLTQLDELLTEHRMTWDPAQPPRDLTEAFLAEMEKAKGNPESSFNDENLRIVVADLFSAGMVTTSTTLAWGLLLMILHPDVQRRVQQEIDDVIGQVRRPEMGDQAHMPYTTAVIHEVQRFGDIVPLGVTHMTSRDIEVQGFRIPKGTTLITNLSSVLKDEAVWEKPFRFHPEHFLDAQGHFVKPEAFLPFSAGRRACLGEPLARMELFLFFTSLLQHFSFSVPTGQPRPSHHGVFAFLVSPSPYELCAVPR
The target in experiment [8] is Cytochrome P450 3A4 (Homo sapiens, UniProt P08684).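 Further: CYP3A4 tested as one member of a cytochrome P450 panel screen.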
Chain of Cytochrome P450 3A4 (P08684 whole entry): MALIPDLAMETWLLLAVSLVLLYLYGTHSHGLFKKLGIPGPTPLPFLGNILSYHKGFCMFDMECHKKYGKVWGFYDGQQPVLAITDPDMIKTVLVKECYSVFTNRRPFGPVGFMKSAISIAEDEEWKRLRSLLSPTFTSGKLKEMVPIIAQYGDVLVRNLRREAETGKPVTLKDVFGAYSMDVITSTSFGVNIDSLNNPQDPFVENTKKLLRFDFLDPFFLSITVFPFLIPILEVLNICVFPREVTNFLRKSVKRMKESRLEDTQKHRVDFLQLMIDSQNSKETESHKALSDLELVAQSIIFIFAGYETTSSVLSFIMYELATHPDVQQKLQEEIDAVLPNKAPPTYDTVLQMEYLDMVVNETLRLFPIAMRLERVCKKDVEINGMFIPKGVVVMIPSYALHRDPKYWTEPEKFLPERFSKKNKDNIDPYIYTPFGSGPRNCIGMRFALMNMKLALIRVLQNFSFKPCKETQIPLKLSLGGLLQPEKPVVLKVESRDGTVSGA
Experiment [9] concerns the target Cytochrome P450 2C9 (Homo sapiens, UniProt P11712).
For experiment [10], the target named is Cytochrome P450 2C19 (Homo sapiens, UniProt P33261). Description: Cytochrome panel assay with activity outcomes. Panel member name: p450-cyp2c19 Compounds with AC50 equal or less than 10 uM are considered active. The conditions noted are these: read-out: AC50. The experiment is classed as functional.
Chain of Cytochrome P450 2C19 (P33261 whole entry): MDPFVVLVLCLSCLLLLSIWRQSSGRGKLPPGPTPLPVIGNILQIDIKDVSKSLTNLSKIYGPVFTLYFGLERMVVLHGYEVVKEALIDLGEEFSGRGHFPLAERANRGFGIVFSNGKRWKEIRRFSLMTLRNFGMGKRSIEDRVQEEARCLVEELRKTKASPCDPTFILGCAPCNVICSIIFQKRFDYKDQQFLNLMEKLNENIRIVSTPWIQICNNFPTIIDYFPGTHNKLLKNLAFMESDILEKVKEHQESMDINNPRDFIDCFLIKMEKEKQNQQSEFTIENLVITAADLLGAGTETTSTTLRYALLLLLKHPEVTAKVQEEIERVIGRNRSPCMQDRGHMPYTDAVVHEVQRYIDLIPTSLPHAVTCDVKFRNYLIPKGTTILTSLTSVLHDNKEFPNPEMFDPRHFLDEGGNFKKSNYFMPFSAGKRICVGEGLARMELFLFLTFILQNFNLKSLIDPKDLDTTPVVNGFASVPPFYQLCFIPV
The target in experiment [11] is T4, Corticotropin-releasing factor receptor 2/Corticotropin-releasing factor-binding protein (Homo sapiens, UniProt P24387+Q13324).
T4 sequence (Q13324 whole entry): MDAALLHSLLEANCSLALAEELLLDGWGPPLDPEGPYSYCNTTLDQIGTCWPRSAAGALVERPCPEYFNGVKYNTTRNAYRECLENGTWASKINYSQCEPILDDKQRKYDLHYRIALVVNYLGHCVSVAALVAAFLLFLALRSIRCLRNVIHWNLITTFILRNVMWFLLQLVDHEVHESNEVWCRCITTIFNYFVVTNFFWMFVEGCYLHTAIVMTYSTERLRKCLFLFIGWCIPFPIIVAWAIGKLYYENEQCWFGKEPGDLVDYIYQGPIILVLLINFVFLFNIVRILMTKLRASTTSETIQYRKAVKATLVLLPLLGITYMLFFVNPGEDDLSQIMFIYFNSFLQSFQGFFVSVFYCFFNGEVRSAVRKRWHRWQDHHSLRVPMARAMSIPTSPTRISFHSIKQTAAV
T4 sequence (P24387 whole entry): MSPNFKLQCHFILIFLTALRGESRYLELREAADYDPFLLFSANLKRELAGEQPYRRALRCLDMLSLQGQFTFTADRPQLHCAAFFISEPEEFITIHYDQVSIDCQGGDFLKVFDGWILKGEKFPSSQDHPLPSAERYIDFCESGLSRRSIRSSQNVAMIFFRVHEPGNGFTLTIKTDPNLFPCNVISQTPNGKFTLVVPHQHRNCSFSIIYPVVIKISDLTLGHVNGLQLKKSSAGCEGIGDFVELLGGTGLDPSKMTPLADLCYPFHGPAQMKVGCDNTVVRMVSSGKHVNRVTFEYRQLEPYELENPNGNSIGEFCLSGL
In words: activators of CRF receptor 2 with binding protein – uHTS hits, confirmation (AID 602473). In kind it is functional. The conditions noted are these: read-out: EC50_Mean.

The nature of experiment [12]: viability of uninfected HEp-2 cells – cell-based, HTS, cytotoxicity control for RSV inhibitor project, dose response (AID 2410). The experiment is classed as functional. The conditions noted are these: human respiratory syncytial virus.

The source made the active and inactive calls.

Chain of Cytochrome P450 2C9 (P11712 whole entry): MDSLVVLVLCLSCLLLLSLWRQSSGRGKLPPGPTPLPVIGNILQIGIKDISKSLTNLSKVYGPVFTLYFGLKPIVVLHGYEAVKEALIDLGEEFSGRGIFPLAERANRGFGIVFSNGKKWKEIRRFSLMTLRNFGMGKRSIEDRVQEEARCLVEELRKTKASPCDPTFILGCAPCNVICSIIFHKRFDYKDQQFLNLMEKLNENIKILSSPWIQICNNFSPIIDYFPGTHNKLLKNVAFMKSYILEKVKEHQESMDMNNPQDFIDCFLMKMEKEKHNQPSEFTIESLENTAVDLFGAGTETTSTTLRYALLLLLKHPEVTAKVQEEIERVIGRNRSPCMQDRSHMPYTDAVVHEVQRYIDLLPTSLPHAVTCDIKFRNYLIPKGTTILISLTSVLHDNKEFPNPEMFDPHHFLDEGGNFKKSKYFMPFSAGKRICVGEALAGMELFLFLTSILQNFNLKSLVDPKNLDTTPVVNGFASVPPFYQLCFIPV

The AC50 is the concentration at which the activity in the assay is half-maximal. Consider `COc1ccc(NC(=O)N2CCC3(CC2)CCN(C(=O)c2ccco2)CC3)cc1`, for which the AC50 in [1] was 20 µM (inconclusive).

Turning to `Cc1nn(Cc2ccccc2Cl)c(C)c1NC(=O)CCCn1nc([N+](=O)[O-])c(Cl)c1C`, the EC50 in [2] was > 260 µM (inactive); in [3], > 60 µM (not active); in [4], 0.514 µM (active).

A word on the IC50: it is the midpoint of a concentration-inhibition curve. In the case of `Cc1ccc(NCc2ccco2)cc1C`, the IC50 in [5] is 123 µM (active).

On to `O=C1NC(=S)NC1=Cc1ccc(O)cc1`, for which, in experiment [5], the IC50 is 9.78 µM (active). For `Nc1cc[n+](CC(=O)Nc2ccccc2)cc1`, in [2], the EC50 is > 260 µM (inactive). On the same count and under the same terms, the same measure for `CC12CN(C(S)=Nc3ccccc3)CC(C)(CN(C(S)=Nc3ccccc3)C1)C2=O`: > 260 µM (inactive). Consider `CCOC(=O)C1(CCOc2ccccc2)CCN(Cc2cc(OC)c3c(c2)OCO3)CC1`, for which the EC50 in experiment [2] is > 260 µM (inactive); in experiment [3], > 60 µM (not active); in [4] it was 2.65 µM (active). Turning to `COc1ccc(CN2CCNC(=O)C2CC(=O)NCC2CCOCC2)cc1C` (configuration not stated), the EC50 in [2] was > 260 µM (inactive).

As to `COc1ccc(S(=O)(=O)Nc2ccc3oc(C)c(C(C)=O)c3c2)cc1`, the half-maximal activity concentration (AC50) in [6] was 6.13 µM (active). Take `Cc1cc(-c2ccccc2)nc2c(Br)c(=O)[nH]n12`: the half-maximal inhibitory concentration (IC50) in [5] is 210 µM (active). As for `CN(C)C(=O)c1ccc(-c2cncnc2-n2ccnc2)cc1`, the AC50 in experiment [7] is 25.1 µM (inconclusive); in experiment [8] it was 10 µM (inconclusive).

Regarding `CCCCCNCc1cccc(Br)c1`, in experiment [1], the AC50 was 15.8 µM (inconclusive).

With `O=C(CCN1C(=O)c2ccccc2C1=O)Nc1sc2c(c1C(=O)NCC1CCCO1)CCC2` (configuration not stated), the EC50 in [2] is > 260 µM (inactive).

Take `O=C(Nc1nc(-c2ccccc2)cs1)c1ccc(Br)o1`: the concentration at half-maximal activity (AC50) in experiment [9] is 11.2 µM (inconclusive); in [8] it was 31.6 µM (inconclusive).

Regarding `CCOC(=O)N1CCN(C(=O)CCn2nc(-c3ccccc3)ccc2=O)CC1`, the AC50 in experiment [1] is 15.8 µM (inconclusive).

`COc1ccc(Nc2ccc3ccccc3c2)cc1`: the half-maximal inhibitory concentration (IC50) in experiment [5] is 53.4 µM (active). In the case of `COc1cc(OC)c(N(C)S(=O)(=O)c2cccc(C(=O)Nc3nnc(C4CC4)s3)c2)cc1Cl`, the EC50 in experiment [2] is 203 µM (active). Still for that read-out and setting: the same measure for `Cc1ccccc1-c1nnc(CS(=O)(=O)c2ccccc2)o1`: > 260 µM (inactive). Consider `Oc1ccc(NC(S)=Nc2ccc(F)cc2)cc1`, for which the IC50 in experiment [5] is 67.5 µM (active). Same read-out and setting: next, `O=[N+]([O-])c1ccc(N2CCN(c3ccc(O)cc3)CC2)c(Cl)c1`: 45 µM (active). Regarding `CCOC(=O)C1CCCN(c2ncnc3c2cnn3-c2ccc(Cl)cc2)C1` (configuration not stated), the AC50 in experiment [10] is 22.4 µM (inconclusive); in experiment [8], 25.1 µM (inconclusive). Also, in experiment [11], the EC50 was > 53 µM (inactive). On to `CCN1CCCC1CNCC(=O)Nc1ccc(OC(F)(F)F)cc1` (configuration not stated), for which, in [5], the IC50 is 115 µM (active). As for `O=C(CCCc1nc(-c2ccc(Cl)cc2)no1)NC1CCCC1`, the AC50 in experiment [6] is 10.2 µM (active).

Regarding `COc1ccc(Br)cc1CN(C)CC(=O)NCCc1ccccc1`, in experiment [5], the IC50 is 95.5 µM (active). Turning to `COc1ccc(C2/C=C\CN(C(=O)C3CC3)[C@H](Cc3ccccc3)C(=O)N2Cc2ccc(F)cc2)cc1` (some centres not stated), the AC50 in [6] was 13.5 µM (active).

By CC50 is commonly meant the concentration giving 50% cytotoxicity. Consider `CCOC(=O)CSC1=NC(=O)/C(=C\c2ccc(Cl)cc2)S1`, for which the AC50 in experiment [10] is 3.16 µM (inconclusive). The EC50 in experiment [2] is 2.74 µM (active). The half-maximal cytotoxic concentration (CC50) in experiment [12] is 18.9 µM (active). `C=CCNC1=C(C(=O)CCC(=O)OC)C(=O)CC(C)(C)C1`: the AC50 in experiment [1] is 2.51 µM (inconclusive). For `COC(=O)C1CC1C(NC(=O)[C@@H]1CCCN1)c1ccccc1` (some centres not stated), the AC50 in [10] was 39.8 µM (inconclusive); in [7], 20 µM (inconclusive); in experiment [1], 15.8 µM (inconclusive). Consider `CC(C)c1nnc(SCc2ccc(CSc3nnc(C(C)C)n3N)cc2)n1N`, for which, in experiment [2], the EC50 is > 260 µM (inactive).

Regarding `NC1=NC2(CCCCCC2)n2c(nc3ccccc32)N1`, the AC50 in [10] is 22.4 µM (inconclusive); in experiment [1], 28.2 µM (inconclusive). Regarding `O=C(O)C1CCCCC1C(=O)Nc1ccc(S(=O)(=O)N2CCOCC2)cc1` (configuration not stated), the IC50 in experiment [5] was 150 µM (active). As for `C=CCN(CC=C)C(=O)C1CCN(Cc2ccc(OCc3ccccc3)cc2)CC1`, the IC50 in experiment [5] is 169 µM (active). The same measure, in the same setting: next, `C/N=C\c1cc(-c2ccccc2)sc1O`: 199 µM (active). Consider `CCS(=O)(=O)N1CCc2nc(-c3ccccc3)sc2C1`, for which the EC50 in experiment [2] is > 260 µM (inactive).

Turning to `Cn1cnc([N+](=O)[O-])c1Sc1nc(N)nc2c1ncn2[C@H]1C[C@H](O)[C@@H](CO)O1`, in [1], the AC50 is 6.31 µM (inconclusive).

As to `O=[N+]([O-])c1ccc(S(=O)(=O)N(Cc2cccnc2)Cc2cc3ccccc3nc2O)cc1`, the EC50 is > 260 µM (inactive) in experiment [2], > 60 µM (not active) in [3] and 1.84 µM (active) in experiment [4].

In the case of `CN1CCN(Cc2coc3c(Cl)cc(Cl)cc3c2=O)CC1`, the IC50 in [5] is 79 µM (active). Consider `c1ccc(Nc2nc(-c3ccoc3)nc3ccccc23)cc1`, for which the AC50 in experiment [10] was 31.6 µM (inconclusive); in experiment [7], 39.8 µM (inconclusive); in [8] it was 20 µM (inconclusive). As for `Cc1ncc2c(c1O)COP(=O)(O)OC2`, the results for the AC50 in experiment [10] and in experiment [1] were 5.01 µM (inconclusive) and 31.6 µM (inconclusive), respectively.
